Laboratory results reported in patent US5824771A, “Cyclic CRF agonists” (The Salk Institute for Biological Studies, priority 1997, dated 1998).
Bridge positions count the residues as written; N and C are the ends. Square brackets hold non-standard residues; d marks the D form. Ends that are not written are not given here. Peptide text beside a SMILES is read from it. Nle = CCCC[C@H](N)C(=O)O

What was measured:
[1] = Lowering of blood pressure on peripheral or iv administration; type: in vivo; details: peripheral administration
[2] = tested on: rat anterior pituitary cells; assay: In vitro stimulation of ACTH and β-endorphin secretion by cultured rat pituitary cells, potency compared with oCRF (Standard) or r/hCRF; type: cell-based; details: for stimulation of secretion of ACTH and β-END-LI (testing by the general procedure), in words: general procedure of Example 1
Experimental: (§1) The cyclic CRF agonists are examined for their effects on the secretion of ACTH and β-endorphin in vitro and also in vivo. […] In vivo testing is carried out using the general procedure set forth in C. Rivier et al., Science, 218, 377 (1982).

[3] = tested on: ACTH and β-END-LI secretion; assay: Secretion of ACTH and β-END-LI on administration of the peptide (in vivo testing)
Experimental: as §1

## CCCC[C@H](NC(=O)[C@H](CCCCN)NC(=O)[C@H](CCCNC(=N)N)NC(=O)[C@H](CC(C)C)NC(=O)[C@H](CC(C)C)NC(=O)[C@H](CCC(=O)O)NC(=O)[C@@H](CC(C)C)NC(=O)[C@H](CO)NC(=O)[C@H](CC(C)C)NC(=O)[C@H](CC(=O)O)NC(=O)[C@@H](NC(=O)[C@H](CO)NC(C)=O)[C@@H](C)CC)C(=O)N[C@H](C(=O)N[C@@H](CCC(=O)O)C(=O)N[C@H](C(=O)N[C@@H](CCC(=O)O)C(=O)N[C@@H](CCCCN)C(=O)N[C@@H](CCC(N)=O)C(=O)N[C@@H](CCC(=O)O)C(=O)N[C@@H](CCCCN)C(=O)N[C@@H](CCC(=O)O)C(=O)N[C@@H](CCCCN)C(=O)N[C@@H](CCC(N)=O)C(=O)N[C@H]1CCC(=O)NCCCC[C@@H](C(=O)N[C@@H](CC(N)=O)C(=O)N[C@@H](CCCNC(=N)N)C(=O)N[C@@H](CC(C)C)C(=O)N[C@@H](CC(C)C)C(=O)N[C@@H](CC(C)C)C(=O)N[C@@H](CC(=O)O)C(=O)N[C@H](C(=O)N[C@H](C(N)=O)[C@@H](C)CC)[C@@H](C)O)NC(=O)[C@H](C)NC(=O)[C@H](C)NC1=O)[C@@H](C)CC)[C@@H](C)CC [Example 16 C, (cyclo 29-32)[Ac-Ser^6, D-Leu^11, Nle^17, Glu^29, Lys^32]-sauvagine(6-40)] (Ac-SIDLS[dL]ELLRK[Nle]IEIEKQEKEKQEAAKNRLLLDTI-NH2; lactam 24-27)
[1]
  lowering of blood pressure when administered peripherally, in words: very significant lowering of blood pressure
[2]
  stimulation of secretion of ACTH and β-END-LI (testing by the general procedure), in words: stimulates the secretion of ACTH and β-END-LI

## (cyclo 30-33)[Ac-D/L-Agl^7, D-Phe^12, Nle^21,38, Glu^30, Lys^33 ]-r/hCRF(7-41) [Example 19]
[3]
  stimulation of secretion of ACTH and β-END-LI on administration of the peptide, in words: stimulates the secretion of ACTH and β-END-LI

## CCCC[C@H](NC(=O)[C@H](CCCCN)NC(=O)[C@H](C)NC(=O)[C@H](CCCNC(=N)N)NC(=O)[C@H](Cc1c[nH]cn1)NC(=O)[C@@H](NC(=O)[C@H](CCCC)NC(=O)[C@H](CC(N)=O)NC(=O)[C@H](CCCNC(=N)N)NC(=O)[C@H](CC(C)C)NC(=O)[C@H](CCCC)NC(=O)[C@H](Cc1c[nH]cn1)NC(=O)[C@@H](Cc1ccccc1)NC(=O)[C@@H](NC(=O)[C@H](CC(C)C)NC(=O)[C@H](CC(=O)O)NC(=O)[C@@H](NC(=O)[C@H](CO)NC(C)=O)[C@@H](C)CC)[C@@H](C)O)[C@@H](C)CC)C(=O)N[C@@H](CCC(=O)O)C(=O)NCC(=O)N[C@@H](CCC(=O)O)C(=O)N[C@@H](CCCNC(=N)N)C(=O)N[C@@H](CCC(=O)O)C(=O)N[C@H]1CCC(=O)NCCCC[C@@H](C(=O)N[C@@H](CC(N)=O)C(=O)N[C@@H](CCCNC(=N)N)C(=O)N[C@@H](CC(N)=O)C(=O)N[C@@H](CC(C)C)C(=O)N[C@@H](CCCC)C(=O)N[C@@H](CC(=O)O)C(=O)N[C@@H](CCC(=O)O)C(=O)N[C@H](C(N)=O)C(C)C)NC(=O)[C@@H](CC(C)C)NC(=O)[C@H](C)NC1=O [Example 16 G, (cyclo 30-33)[Ac-Ser^7, D-Phe^12, Nle^14,18,24,38, Glu^30, D-Leu^32, Lys^33]-sole urotensin(7-41)] (Ac-SIDLT[dF]H[Nle]LRN[Nle]IHRAK[Nle]EGEREEA[dL]KNRNL[Nle]DEV-NH2; lactam 24-27)
[1]
  lowering of blood pressure when administered peripherally, in words: very significant lowering of blood pressure
[2]
  stimulation of secretion of ACTH and β-END-LI (testing by the general procedure), in words: stimulate the secretion of ACTH and β-END-LI

## (cyclo 30-33)[Ac-MeAgl(For)^7, D-Phe^12, Nle^21,38, Glu^30, Lys^33 ]-r/hCRF(7-41) [Example 19 E]
[3]
  stimulation of secretion of ACTH and β-END-LI on administration of the peptide, in words: stimulates the secretion of ACTH and β-END-LI

## CCCC[C@H](NC(=O)[C@H](CCCCN)NC(=O)[C@H](C)NC(=O)[C@H](CCCNC(=N)N)NC(=O)[C@H](Cc1c[nH]cn1)NC(=O)[C@@H](NC(=O)[C@H](CCCC)NC(=O)[C@H](CC(N)=O)NC(=O)[C@H](CCCNC(=N)N)NC(=O)[C@H](CC(C)C)NC(=O)[C@H](CCCC)NC(=O)[C@H](Cc1c[nH]cn1)NC(=O)[C@@H](Cc1ccccc1)NC(=O)[C@@H](NC(=O)[C@H](CC(C)C)NC(=O)[C@H](CC(=O)O)NC(=O)[C@@H](NC(=O)[C@H](CO)NC(C)=O)[C@@H](C)CC)[C@@H](C)O)[C@@H](C)CC)C(=O)N[C@@H](CCC(=O)O)C(=O)NCC(=O)N[C@@H](CCC(=O)O)C(=O)N[C@@H](CCCNC(=N)N)C(=O)N[C@@H](CCC(=O)O)C(=O)N[C@H]1CCC(=O)NCCCC[C@@H](C(=O)N[C@@H](CC(N)=O)C(=O)N[C@@H](CCCNC(=N)N)C(=O)N[C@@H](CC(N)=O)C(=O)N[C@@H](CC(C)C)C(=O)N[C@@H](CC(C)C)C(=O)N[C@@H](CC(=O)O)C(=O)N[C@@H](CCC(=O)O)C(=O)N[C@H](C(N)=O)C(C)C)NC(=O)[C@@H](CC(C)C)NC(=O)[C@H](C)NC1=O [Example 16 E, (cyclo 30-33)[Ac-Ser^7, D-Phe^12, Nle^14,18,24, Glu^30, D-Leu^32, Lys^33]-maggy urotensin(7-41)] (Ac-SIDLT[dF]H[Nle]LRN[Nle]IHRAK[Nle]EGEREEA[dL]KNRNLLDEV-NH2; lactam 24-27)
[1]
  lowering of blood pressure when administered peripherally, in words: very significant lowering of blood pressure
[2]
  stimulation of secretion of ACTH and β-END-LI (testing by the general procedure), in words: stimulate the secretion of ACTH and β-END-LI

## SEEPP[Nle]SIDLT[dF]H[Nle]LRN[Nle]IHRAK[Nle]EGEREEA[dL]KNRNL[Nle]DEV-NH2 (lactam 30-33) [Example 3 G, (cyclo 30-33)[Nle^6,14,18,24,381 D-Phe^12 Glu^301 D-Leu^32, Lys^33]-sole urotensin]
[1]
  lowering of blood pressure when administered peripherally, in words: very significant lowering of blood pressure
[2]
  stimulation of secretion of ACTH and β-END-LI (testing by the general procedure), in words: stimulates the secretion of ACTH and β-END-LI

## SEDPP[Nle]SIDLT[dF]H[Nle]LRN[Nle]IHRAK[Nle]EGEREEA[dQ]KNRNLLDEV-NH2 (lactam 30-33) [Example 3 H, (cyclo 30-33)[Nle^6,14,18,24, D-Phe^12, Glu^30, D-Gln^32, Lys^33]-flounder urotensin]
[1]
  lowering of blood pressure when administered peripherally, in words: very significant lowering of blood pressure
[2]
  stimulation of secretion of ACTH and β-END-LI (testing by the general procedure), in words: stimulates the secretion of ACTH and β-END-LI

## CCCC[C@H](NC(=O)[C@H](CCC(=O)O)NC(=O)[C@@H](NC(=O)[C@H](CCCC)NC(=O)[C@H](CC(N)=O)NC(=O)[C@H](CCCNC(=N)N)NC(=O)[C@H](CC(C)C)NC(=O)[C@H](CC(C)C)NC(=O)[C@H](Cc1c[nH]cn1)NC(=O)[C@@H](Cc1ccccc1)NC(=O)[C@@H](NC(=O)[C@H](CC(C)C)NC(=O)[C@H](CC(=O)O)NC(=O)[C@@H](NC(=O)[C@H](CO)NC(C)=O)[C@@H](C)CC)[C@@H](C)O)[C@@H](C)CC)C(=O)N[C@@H](C)C(=O)N[C@@H](CCCNC(=N)N)C(=O)N[C@@H](CC(N)=O)C(=O)N[C@@H](CCC(=O)O)C(=O)N[C@@H](CC(N)=O)C(=O)N[C@@H](CCC(N)=O)C(=O)N[C@@H](CCCNC(=N)N)C(=O)N[C@@H](CCC(=O)O)C(=O)N[C@H]1CCC(=O)NCCCC[C@@H](C(=O)N[C@@H](CC(N)=O)C(=O)N[C@@H](CCCNC(=N)N)C(=O)N[C@@H](CCCCN)C(=O)N[C@@H](Cc2ccc(O)cc2)C(=O)N[C@@H](CC(C)C)C(=O)N[C@@H](CC(=O)O)C(=O)N[C@@H](CCC(=O)O)C(=O)N[C@H](C(N)=O)C(C)C)NC(=O)[C@@H](C)NC(=O)[C@H](C)NC1=O [Example 16 F, (cyclo 30-33)[Ac-Ser^7, D-Phe^12, Nle^18,21, Glu^30, D-Ala^32, Lys^33]-carp urotensin(7-41)] (Ac-SIDLT[dF]HLLRN[Nle]IE[Nle]ARNENQREEA[dA]KNRKYLDEV-NH2; lactam 24-27)
[1]
  lowering of blood pressure when administered peripherally, in words: very significant lowering of blood pressure
[2]
  stimulation of secretion of ACTH and β-END-LI (testing by the general procedure), in words: stimulate the secretion of ACTH and β-END-LI

## CCCC[C@H](NC(=O)[C@H](CCCCN)NC(=O)[C@H](C)NC(=O)[C@H](CCCNC(=N)N)NC(=O)[C@H](Cc1c[nH]cn1)NC(=O)[C@@H](NC(=O)[C@H](CCCC)NC(=O)[C@H](CC(N)=O)NC(=O)[C@H](CCCNC(=N)N)NC(=O)[C@H](CC(C)C)NC(=O)[C@H](CCCC)NC(=O)[C@H](Cc1c[nH]cn1)NC(=O)[C@@H](Cc1ccccc1)NC(=O)[C@@H](NC(=O)[C@H](CC(C)C)NC(=O)[C@H](CC(=O)O)NC(=O)[C@@H](NC(=O)[C@H](CO)NC(C)=O)[C@@H](C)CC)[C@@H](C)O)[C@@H](C)CC)C(=O)N[C@@H](CCC(=O)O)C(=O)NCC(=O)N[C@@H](CCC(=O)O)C(=O)N[C@@H](CCCNC(=N)N)C(=O)N[C@@H](CCC(=O)O)C(=O)N[C@H]1CCC(=O)NCCCC[C@@H](C(=O)N[C@@H](CC(N)=O)C(=O)N[C@@H](CCCNC(=N)N)C(=O)N[C@@H](CC(N)=O)C(=O)N[C@@H](CC(C)C)C(=O)N[C@@H](CC(C)C)C(=O)N[C@@H](CC(=O)O)C(=O)N[C@@H](CCC(=O)O)C(=O)N[C@H](C(N)=O)C(C)C)NC(=O)[C@@H](Cc2c[nH]cn2)NC(=O)[C@H](C)NC1=O [Example 16 E D-His^32 analog] (Ac-SIDLT[dF]H[Nle]LRN[Nle]IHRAK[Nle]EGEREEA[dH]KNRNLLDEV-NH2; lactam 24-27)
[1]
  lowering of blood pressure when administered peripherally, in words: very significant lowering of blood pressure
[2]; compared with the Standard or with a named analog
  in vitro biopotency, comparison in words: increases biopotency over that of the D-Leu^32 analog
[2]
  stimulation of secretion of ACTH and β-END-LI (testing by the general procedure), in words: stimulate the secretion of ACTH and β-END-LI

## (cyclo 30-33)[Ac-Pro^4, D-Phe^12, Nle^21,38, Glu^30, D-His^32, Lys^33 ]-oCRF(4-41) [Example 3]
[1]
  lowering of blood pressure when administered peripherally, in words: very significant lowering of blood pressure
[2]
  stimulation of secretion of ACTH and β-END-LI (testing by the general procedure), in words: highly stimulates the secretion of ACTH and β-END-LI

## SEEPP[Nle]SIDLT[dF]H[Nle]LRN[Nle]IHRAK[Nle]EGEREEA[dL]KNRNLLDEV-NH2 (lactam 30-33) [Example 3 E, (cyclo 30-33)[Nle^6,14,18,24, D-Phe^12, Glu^30, D-Leu^32, Lys^33]-maggy urotensin]
[1]
  lowering of blood pressure when administered peripherally, in words: very significant lowering of blood pressure
[2]
  stimulation of secretion of ACTH and β-END-LI (testing by the general procedure), in words: stimulates the secretion of ACTH and β-END-LI
